Laboratory results from ChEMBL document CHEMBL1151128, “Halleridone, a cytotoxic constituent from Cornus controversa” (J Nat Prod, 1988).
Converted amounts (≈) assume the structure as drawn.

How the values were obtained:
[1] = Cytotoxicity against human HeLaS3 cells; assay type: functional, cell-based; conditions: HeLa S3
P388 = test: Cytotoxicity against mouse P388 cells; assay type: functional, cell-based

Structure (SMILES) | IC50 [1] [µg/mL] | IC50 (P388) [µg/mL]
OC1C=C[C@]2(O)CCO[C@@H]2C1 (stereo not given in full) | > 100 | 40.8 (≈ 261 µM)
CCCC(=O)O[C@]12C=CC(=O)C[C@H]1OCC2 | 2.7 (≈ 12 µM) | 0.6 (≈ 2.68 µM)
CCCCCC(=O)O[C@]12C=CC(=O)C[C@H]1OCC2 | 1.8 (≈ 7.13 µM) | 0.3 (≈ 1.19 µM)
O=C1C=C[C@]2(OC(=O)c3ccccc3)CCO[C@@H]2C1 | 1.6 (≈ 6.19 µM) | 0.5 (≈ 1.94 µM)
O=C1CC[C@]2(O)CCO[C@@H]2C1 | > 100 | 43 (≈ 275 µM)
CCCCCCCC(=O)O[C@]12C=CC(O)C[C@H]1OCC2 (stereo not given in full) | 3.5 (≈ 12.4 µM) | 8.4 (≈ 29.7 µM)
CCCC(=O)O[C@]12C=CC(O)C[C@H]1OCC2 (stereo not given in full) | 8.8 (≈ 38.9 µM) | > 100
CC(=O)O[C@]12C=CC(O)C[C@H]1OCC2 (stereo not given in full) | > 100 | > 100
O=C1C=C[C@]2(OC(=O)c3ccc(Cl)cc3)CCO[C@@H]2C1 | 0.9 (≈ 3.07 µM) | 0.7 (≈ 2.39 µM)
CCCCCC(=O)O[C@]12C=CC(O)C[C@H]1OCC2 (stereo not given in full) | 5.3 (≈ 20.8 µM) | 38.5 (≈ 151 µM)
CCCCCCCC(=O)O[C@]12C=CC(=O)C[C@H]1OCC2 | 0.8 (≈ 2.85 µM) | 0.3 (≈ 1.07 µM)
O=C1C=C[C@]2(OC(=O)c3ccccc3Cl)CCO[C@@H]2C1 | 1 (≈ 3.42 µM) | 0.4 (≈ 1.37 µM)
O=C1C=C[C@]2(OC(=O)c3cccc(Cl)c3)CCO[C@@H]2C1 | 1.2 (≈ 4.1 µM) | < 0.1
CC(=O)O[C@]12C=CC(=O)C[C@H]1OCC2 | 4.1 (≈ 20.9 µM) | 0.5 (≈ 2.55 µM)
O=C1C=C[C@]2(O)CCO[C@@H]2C1 [HALLERIDONE] | 2.8 (≈ 18.2 µM) | 2.1 (≈ 13.6 µM)
